For 24 molecules, EC50 results are on record in patent US11845752B2, “Substituted imidazo[1,5-a]pyrazines for the treatment of hepatitis B” (ALIGOS THERAPEUTICS, INC., priority 2020, dated 2023).

Where two headings read alike, the source gives them in different places.

In the test the test system is HBV. Nature of the test: HBV-DNA antiviral assay using HepG2.117 cells (intracellular HBV DNA by qPCR). The note with it: HBV DNA inhibition, 3 days incubation, read-out: EC50. It is filed as cell-based, HBV genotype D. As to the method:
The following assay procedure describes the HBV antiviral assay, using HepG2.117 cells, which carry a stably integrated genotype D HBV genome under the control of a Tet-off promoter, and intracellular HBV DNA quantification as endpoint. Cell viability is assessed in parallel by measuring the intracellular ATP content using ATPlite (Perkin Elmer).
On day 0, HepG2.117 cells (which are maintained in routine cell culture with doxycycline present in the medium at a final concentration of 1 μg/mL) were seeded in 96-well plates (white with clear bottom) at a density of 2.0×10^4 cells/well (0.1 mL/well) in medium without doxycycline to induce pgRNA transcription and subsequent formation of HBV particles. The cells were incubated at 37° C. and 5% CO2.
On day 1, medium was removed from each well, the test articles were diluted in culture medium without doxcycyline and 100 μL was added to cell culture wells (9 concentrations, 4-fold dilution). For each plate, 6 untreated (merely DMSO) wells were included. The final concentration of DMSO in the culture medium was 2%. Each plate was prepared in duplicate (one for HBV DNA extraction, one for ATPlite measurement). The cells were incubated at 37° C. and 5% CO2 for 3 days.
On day 4, cell viability was assessed using ATPlite and cell lysates were prepared for HBV DNA extraction and subsequent quantification by qPCR.
Medium was removed from each well and 100 μL of 0.33% NP-40 in H2O was added to each well. Plates were sealed, incubated at 4° C. for 5 mins, vortexed extensively and centrifuged briefly. Next, 35 μL of lysate was added to 65 μL QuickExtract DNA Extraction Solution (Epicentre) in a PCR plate for each well. PCR plate was incubated at 65° C. for 6 mins, 98° C. for 2 mins and finally cooled to 4° C. HBV DNA was then quantified by qPCR with HBV-specific primers and probes as specified in Table 1 using the Bio-Rad SSOAdvanced Universal Probes Supermix on a CFX96 machine (Bio-Rad). The PCR cycle program consisted of 95° C. for 3 mins, followed by 40 cycles at 95° C. for 10 sec and 60° C. for 30 sec.
A DNA standard was prepared by dilution of an IDT gBlock corresponding to the amplicon with concentrations ranging from 10^2 to 10^8 copies/input (i.e. per 4 μL) and used to generate a standard curve by plotting Cq values vs. HBV DNA standard concentration. The quantity of HBV DNA in each sample was determined by interpolating from the standard curve.
Cell viability was calculated as follows: % Cell viability=(luminescence value of test sample)/(average luminescence value of 2% DMSO control)×100%. HBV DNA inhibition was calculated as follows: 100−(HBV DNA copy number of test sample)/(average HBV DNA copy number of 2% DMSO control)×100%. No normalization to entecavir was required due to the excellent dynamic window of this assay. The CC50, EC50 and EC90 values were determined by dose-response curves fitted using non-linear regression.

The mark [1] stands for this setting: Hepatitis B virus, HepG2.117, 72 h.

On to `O=C(NCc1ccccc1-c1ncccn1)c1c2n(c(=O)n1-c1ccc(OC3CC3)cc1)C[C@@H](CO)N(C(=O)c1ccc(Br)c(C(F)(F)F)c1)C2` (stereo in doubt) [Compound 131, 7-[4-bromo-3-(trifluoromethyl)benzoyl]-2-[4-(cyclopropoxy)phenyl]-6-(hydroxymethyl)-3-oxo-N-[(2-pyrimidin-2-ylphenyl)methyl]-6,8-dihydro-5H-imidazo[1,5-a]pyrazine-1-carboxamide], for which the EC50 under setting [1] lay in the range of 500 to 5000 nM.

As for `C[C@@H]1Cn2c(c(C(=O)NCc3ccccc3-c3ncccn3)n(-c3ccc(OC[C@H](O)C(F)(F)F)cc3)c2=O)CN1C(=O)c1ccc(Br)c(C(F)(F)F)c1` (mixture of isomers) [Compound 75a, (6RS)-7-[4-bromo-3-(trifluoromethyl)benzoyl]-6-methyl-3-oxo-N-[(2-pyrimidin-2-ylphenyl)methyl]-2-[4-[(2S)-3,3,3-trifluoro-2-hydroxy-propoxy]phenyl]-6,8-dihydro-5H-imidazo[1,5-a]pyrazine-1-carboxamide], the 50% effective concentration (EC50) under setting [1] is less than 50 nM.

Turning to `Cc1nnc(-c2ccccc2CNC(=O)c2c3n(c(=O)n2-c2ccc4oc(C)nc4c2)CC(C)N(C(=O)c2ccc(Br)c(Cl)c2)C3)o1` (single isomer, unassigned) [Compound 53b], the EC50 fell in the range of 50 to 500 nM.

For `CC1Cn2c(c(C(=O)NCc3ccccc3-c3ccncn3)n(-c3ccc(N4CCO[C@H](C)C4)cc3)c2=O)CN1C(=O)c1ccc(Br)c(Cl)c1` (stereo in doubt) [Compound 15b, (6S*)-7-(4-bromo-3-chloro-benzoyl)-6-methyl-2-[4-[(2R)-2-methylmorpholin-4-yl]phenyl]-3-oxo-N-[(2-pyrimidin-4-ylphenyl)methyl]-6,8-dihydro-5H-imidazo[1,5-a]pyrazine-1-carboxamide], the EC50 is less than 50 nM.

In the case of `CC1Cn2c(c(C(=O)NCc3ccccc3-c3cccc(N)n3)n(-c3ccc(OC4CC4)cc3)c2=O)CN1C(=O)c1ccc(Br)c(Cl)c1` (single isomer, unassigned) [Compound 23a], under setting [1], the concentration giving a half-maximal response (EC50) fell in the range of 50 to 500 nM.

In the case of `CCC(=O)COc1ccc(-n2c(C(=O)NCc3ccccc3-c3ncccn3)c3n(c2=O)CC(C)N(C(=O)c2ccc(Br)c(C(F)(F)F)c2)C3)cc1` (single isomer, unassigned) [Compound 70a], under setting [1], the EC50 was in the range of 50 to 500 nM.

As for `C[C@H](COc1ccc(-n2c(C(=O)NCc3ccccc3-c3ncccn3)c3n(c2=O)C[C@H](C)N(C(=O)c2ccc(Br)c(C(F)(F)F)c2)C3)cc1)N(C)C` (single isomer, unassigned) [Compound 97b], under setting [1], the EC50 is less than 50 nM.

Take `COc1cnn(-c2ccccc2CNC(=O)c2c3n(c(=O)n2-c2ccc(OC4CC4)cc2)CC(C)N(C(=O)c2ccc(Br)c(Cl)c2)C3)c1` (single isomer, unassigned) [Compound 17a, 7-(4-bromo-3-chloro-benzoyl)-2-[4-(cyclopropoxy)phenyl]-N-[[2-(4-methoxypyrazol-1-yl)phenyl]methyl]-6-methyl-3-oxo-6,8-dihydro-5H-imidazo[1,5-a]pyrazine-1-carboxamide]: the EC50 under setting [1] was in the range of 50 to 500 nM.

As for `O=C(NCc1ccccc1)c1c2n(c(=O)n1-c1ccc(OC3CC(O)C3)cc1)CCN(C(=O)c1ccc(Br)c(Cl)c1)C2` (stereo not drawn) [Compound 129, N-benzyl-7-(4-bromo-3-chloro-benzoyl)-2-[4-(3-hydroxycyclobutoxy)phenyl]-3-oxo-6,8-dihydro-5H-imidazo[1,5-a]pyrazine-1-carboxamide], the EC50 under setting [1] was in the range of 50 to 500 nM.

Take `CC1Cn2c(c(C(=O)NCc3ccccc3-c3ccncn3)n(-c3ccc(N4CC5(CCN5C)C4)cc3)c2=O)CN1C(=O)c1ccc(Br)c(C(F)(F)F)c1` (single isomer, unassigned) [Compound 84a]: under setting [1], the EC50 fell in the range of 50 to 500 nM.

On to `CC1Cn2c(c(C(=O)NCc3ccccc3-c3nnco3)n(-c3ccc(N4CC5(CN(C)C5)C4)cc3)c2=O)CN1C(=O)c1ccc(Br)c(C(F)(F)F)c1` (single isomer, unassigned) [Compound 112a], for which, under setting [1], the EC50 lay in the range of 500 to 5000 nM.

Take `CC1Cn2c(c(C(=O)NCc3c(F)cccc3-c3cccc(N)n3)n(-c3ccc(OC4CC4)cc3)c2=O)CN1C(=O)c1ccc(Br)c(Cl)c1` (single isomer, unassigned) [Compound 35a]: the EC50 under setting [1] was in the range of 50 to 500 nM.

`CC1Cn2c(c(C(=O)NCc3ccccc3-c3ccncn3)n(-c3ccc(N4CCO[C@H](C)C4)cc3)c2=O)CN1C(=O)c1ccc(Br)c(Cl)c1` (stereo in doubt) [Compound 15a, (6R*)-7-(4-bromo-3-chloro-benzoyl)-6-methyl-2-[4-[(2R)-2-methylmorpholin-4-yl]phenyl]-3-oxo-N-[(2-pyrimidin-4-ylphenyl)methyl]-6,8-dihydro-5H-imidazo[1,5-a]pyrazine-1-carboxamide]: the EC50 under setting [1] fell in the range of 50 to 500 nM.

Take `C[C@@H]1Cn2c(c(C(=O)NCc3ccccc3-c3ccncn3)n(-c3ccc(OC[C@H](O)C(F)(F)F)cc3)c2=O)CN1C(=O)c1ccc(Br)c(C(F)(F)F)c1` (stereo in doubt) [Compound 63a, (6RS)-7-[4-bromo-3-(trifluoromethyl)benzoyl]-6-methyl-3-oxo-N-[(2-pyrimidin-4-ylphenyl)methyl]-2-[4-[(25)-3,3,3-trifluoro-2-hydroxy-propoxy]phenyl]-6,8-dihydro-5H-imidazo[1,5-a]pyrazine-1-carboxamide]: the EC50 under setting [1] is less than 50 nM.

For the molecule `CNc1cc(-c2ccccc2CNC(=O)c2c3n(c(=O)n2-c2ccc(OC4CC4)cc2)CC(C)N(C(=O)c2ccc(Br)c(C(F)(F)F)c2)C3)ncn1` (single isomer, unassigned) [Compound 40b], the EC50 was less than 50 nM.

For the molecule `C[C@@H]1Cn2c(c(C(=O)NCc3ccccc3-c3ccncn3)n(-c3ccc(N4CCN(C)[C@H](C(F)(F)F)C4)cc3)c2=O)CN1C(=O)c1ccc(Br)c(C(F)(F)F)c1` (mixture of isomers) [Compound 87a, (6RS)-7-[4-bromo-3-(trifluoromethyl)benzoyl]-6-methyl-2-[4-[(3S)-4-methyl-3-(trifluoromethyl)piperazin-1-yl]phenyl]-3-oxo-N-[(2-pyrimidin-4-ylphenyl)methyl]-6,8-dihydro-5H-imidazo[1,5-a]pyrazine-1-carboxamide], the EC50 under setting [1] was in the range of 50 to 500 nM.

Consider `CC1Cn2c(c(C(=O)NCc3ccccc3-c3ncccn3)n(-c3ccc4c(cnn4CC(F)(F)F)c3)c2=O)CN1C(=O)c1ccc(Br)c(C(F)(F)F)c1` (single isomer, unassigned) [Compound 100a], for which the EC50 under setting [1] was less than 50 nM.

Regarding `CC1Cn2c(c(C(=O)NCc3ccccc3-c3ncccn3)n(-c3ccc(N4CC5(CN(C)C5)C4)cc3)c2=O)CN1C(=O)c1ccc(Br)c(C(F)(F)F)c1` (single isomer, unassigned) [Compound 78a], the EC50 under setting [1] is less than 50 nM.

`COc1nccc(-c2ccccc2CNC(=O)c2c3n(c(=O)n2-c2ccc(OC4CC4)cc2)CC(C)N(C(=O)c2ccc(Br)c(Cl)c2)C3)n1` (single isomer, unassigned) [Compound 37a]: under setting [1], the EC50 lay in the range of 50 to 500 nM.

Take `Cc1nnc(-c2ccccc2CNC(=O)c2c3n(c(=O)n2-c2ccc(OC4CC4)cc2)CC(C)N(C(=O)c2ccc(Br)c(Cl)c2)C3)o1` (single isomer, unassigned) [Compound 1b, (6R*)-7-(4-bromo-3-chlorobenzoyl)-2-(4-cyclopropoxyphenyl)-6-methyl-N-(2-(5-methyl-1,3,4-oxadiazol-2-yl)benzyl)-3-oxo-2,3,5,6,7,8-hexahydroimidazo[1,5-a]pyrazine-1-carboxamide]: the EC50 is less than 50 nM.

For `CC1Cn2c(c(C(=O)NCc3c(F)cccc3-n3cccn3)n(-c3ccc(OC4CC4)cc3)c2=O)CN1C(=O)c1ccc(Br)c(C(F)(F)F)c1` (single isomer, unassigned) [Compound 25b], the EC50 was less than 50 nM.

On to `CC1Cn2c(c(C(=O)NCc3ccccc3-c3c[nH]cn3)n(-c3ccc(OC4CC4)cc3)c2=O)CN1C(=O)c1ccc(Br)c(Cl)c1` (single isomer, unassigned) [Compound 44a], for which the EC50 under setting [1] was in the range of 50 to 500 nM.

Take `CC1Cn2c(c(C(=O)NCc3ccccc3-c3ccncn3)n(-c3ccc(OC[C@@H](O)C(F)(F)F)cc3)c2=O)CN1C(=O)c1ccc(Br)c(C(F)(F)F)c1` (single isomer, unassigned) [Compound 62a]: under setting [1], the EC50 is less than 50 nM.

On to `CC1Cn2c(c(C(=O)NCc3ccccc3-c3ccccn3)n(-c3ccc(OC[C@H](O)C(F)(F)F)cc3)c2=O)CN1C(=O)c1ccc(Br)c(C(F)(F)F)c1` (single isomer, unassigned) [Compound 69a], for which the EC50 under setting [1] is less than 50 nM.
